Test results published in patent EP4610269A1, “UROKINASE PLASMINOGEN ACTIVATOR SURFACE RECEPTOR (UPAR) LIGANDS FOR DIAGNOSTIC OR THERAPEUTIC USE” (3B Pharmaceuticals GmbH, priority 2024, dated 2025).
Where a SMILES comes first, the peptide text is derived from it. Bridges are numbered along the chain shown (N, C = ends). [ ]: non-standard residue; d: D form. The star is where a group is joined. DOTA = O=C(O)CN1CCN(CC(=O)O)CCN(CC(=O)*)CCN(CC(=O)O)CC1; Phe(4-Cl) = N[C@@H](Cc1ccc(Cl)cc1)C(=O)O; Pentanesulfonyl = CCCCCS(=O)(=O)*; Propanoyl(3-NMe2) = CN(C)CCC(=O)*; Hyp = O=C(O)[C@@H]1C[C@@H](O)CN1; NMeI = CC[C@H](C)[C@H](NC)C(=O)O; 4Pal = N[C@@H](Cc1ccncc1)C(=O)O; NMeE = CN[C@@H](CCC(=O)O)C(=O)O; Pentanoyl(4-Me) = CC(C)CCC(=O)*; Cha = N[C@@H](CC1CCCCC1)C(=O)O; Cit = NC(=O)NCCC[C@H](N)C(=O)O; NMeNle = CCCC[C@H](NC)C(=O)O; dDap = NC[C@@H](N)C(=O)O; Nva = CCC[C@H](N)C(=O)O; Pentanoyl = CCCCC(=O)*

What was measured:
human uPAR (uPAR-Fc) = target: T1, human uPAR (uPAR-Fc) (Homo sapiens, UniProt Q03405); assay: Surface plasmon resonance (SPR) assay, single cycle kinetics; type: binding; conditions: pKD category for uPAR SPR activity assay; uPAR-Fc on Protein A-Chip, 25°C; read-out: pKD CAT (converted)
T1 construct: comprising amino acids Leu23-Arg303 according to UniProt entry Q03405.1; purchased R&D Systems 10378-UK-100
Summary of the method: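 uPAR-Fc (Leu23-Arg303 extracellular domains, human IgG1 Fc) captured on Protein A chip to ~2000 RU; single-cycle kinetics at 25°C in HEPES running buffer pH 7.4 with 0.1% DMSO. KD from double-referenced sensorgrams fitted to 1:1 Langmuir model, reported as pKD.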

[1] = target: T2, uPAR-expressing HEC-265 human endometrial adenocarcinoma cells (Homo sapiens, UniProt Q03405); assay: Competitive FACS binding assay; conditions: pIC50 category of FACS binding
T2 construct: Cell surface uPAR-expressing HEC-265 human endometrial adenocarcinoma cells; host or cells: HEC-265
Summary of the method: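 HEC-265 cells incubated 1 h at 4 °C with 10 nM biotinylated uPAR peptide tracer plus increasing test compound, then stained with APC-streptavidin on ice. Median APC fluorescence by flow cytometry; 4PL fit gives pIC50.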

T1 sequence (Q03405 23-303): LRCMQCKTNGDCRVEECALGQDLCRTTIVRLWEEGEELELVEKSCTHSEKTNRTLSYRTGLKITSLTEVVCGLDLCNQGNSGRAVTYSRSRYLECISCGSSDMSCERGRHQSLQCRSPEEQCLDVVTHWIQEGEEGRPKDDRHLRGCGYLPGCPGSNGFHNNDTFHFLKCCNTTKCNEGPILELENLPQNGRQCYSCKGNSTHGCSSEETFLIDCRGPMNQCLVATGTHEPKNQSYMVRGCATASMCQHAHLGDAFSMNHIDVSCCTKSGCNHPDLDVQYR
T2 sequence (Q03405 23-335): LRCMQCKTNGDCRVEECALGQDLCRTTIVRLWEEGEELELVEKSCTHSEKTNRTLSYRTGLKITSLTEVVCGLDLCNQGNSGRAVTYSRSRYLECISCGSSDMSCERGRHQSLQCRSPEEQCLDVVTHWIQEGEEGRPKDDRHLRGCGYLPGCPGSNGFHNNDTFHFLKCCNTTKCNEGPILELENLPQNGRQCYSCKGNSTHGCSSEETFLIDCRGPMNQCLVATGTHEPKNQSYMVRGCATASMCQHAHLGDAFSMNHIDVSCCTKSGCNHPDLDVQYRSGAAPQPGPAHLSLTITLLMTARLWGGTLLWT

SMILES	Kd (human uPAR (uPAR-Fc)) [nM]	IC50 [1] [nM]
CC(C)CCC(=O)N[C@H]1CSSC[C@@H](C(N)=O)NC(=O)[C@H](CC(C)C)NC(=O)[C@H](CC2CCCCC2)NC(=O)[C@@H](C)NC(=O)[C@@H]2CCCN2C(=O)[C@H](Cc2ccccc2)NC(=O)[C@H](Cc2ccc(O)cc2)NC(=O)[C@H](CCC(N)=O)NC(=O)[C@H](CCCNC(N)=O)NC1=O [UPAR-326, iHex-[Cys-Cit-Gln-Tyr-Phe-Pro-ala-Cha-Leu-Cys]-NH2] ({Pentanoyl(4-Me)}-C[Cit]QYFP[dA][Cha]LC-NH2; disulfide 1-10)	< 1.58	≤ 10
CCCCCS(=O)(=O)N[C@H]1CSSC[C@@H](C(N)=O)NC(=O)[C@H](CCC)NC(=O)[C@H]([C@@H](C)CC)NC(=O)[C@@H]2C[C@@H](O)CN2C(=O)[C@@H]2CCCN2C(=O)[C@H](Cc2ccccc2)NC(=O)[C@H](Cc2ccc(O)cc2)NC(=O)[C@H](CCC(N)=O)NC(=O)[C@H](CCCNC(=N)N)NC1=O [UPAR-328, PentylSO2-[Cys-Arg-Gln-Tyr-Phe-Pro-Hyp-Ile-Nva-Cys]-NH2] (Pentanesulfonyl-CRQYFP[Hyp]I[Nva]C-NH2; disulfide 1-10)	< 1.58	≤ 10
CCCCC(=O)N[C@H]1CSSC[C@@H](C(N)=O)NC(=O)[C@H](CCC)NC(=O)[C@H]([C@@H](C)CC)NC(=O)[C@@H](CO)NC(=O)[C@@H]2CCCN2C(=O)[C@H](Cc2ccccc2)NC(=O)[C@H](Cc2ccc(O)cc2)NC(=O)[C@H](CCC(N)=O)NC(=O)[C@H](CCCNC(=N)N)NC1=O [UPAR-329, Pent-[Cys-Arg-Gln-Tyr-Phe-Pro-ser-Ile-Nva-Cys]-NH2] (Pentanoyl-CRQYFP[dS]I[Nva]C-NH2; disulfide 1-10)	< 1.58	≤ 10
CCCCC(=O)N[C@H]1CSSC[C@@H](C(N)=O)NC(=O)[C@H](CCC)NC(=O)[C@H]([C@@H](C)CC)NC(=O)[C@@H](CN)NC(=O)[C@@H]2CCCN2C(=O)[C@H](Cc2ccccc2)NC(=O)[C@H](Cc2ccc(O)cc2)NC(=O)[C@H](CCC(N)=O)NC(=O)[C@H](CCCNC(=N)N)NC1=O [UPAR-330, Pent-[Cys-Arg-Gln-Tyr-Phe-Pro-dap-Ile-Nva-Cys]-NH2] (Pentanoyl-CRQYFP[dDap]I[Nva]C-NH2; disulfide 1-10)	< 1.58	≤ 10
CC[C@H](C)[C@@H]1NC(=O)[C@@H](C)NC(=O)[C@@H]2CCCN2C(=O)[C@H](Cc2ccc(Cl)cc2)NC(=O)[C@H](Cc2ccc(O)cc2)NC(=O)[C@H](CCC(N)=O)NC(=O)[C@H](CCCNC(N)=O)NC(=O)[C@@H](NC(=O)CCC(C)C)CSSC[C@@H](C(N)=O)NC(=O)[C@H](CC(C)C)NC1=O [UPAR-332, iHex-[Cys-Cit-Gln-Tyr-Pcf-Pro-ala-Ile-Leu-Cys]-NH2] ({Pentanoyl(4-Me)}-C[Cit]QY[Phe(4-Cl)]P[dA]ILC-NH2; disulfide 1-10)	< 1.58	≤ 10
CC[C@H](C)[C@@H]1NC(=O)[C@@H](C)NC(=O)[C@@H]2CCCN2C(=O)[C@H](Cc2ccccc2)NC(=O)[C@H](Cc2ccc(O)cc2)NC(=O)[C@H](CCC(N)=O)NC(=O)[C@H](CCCNC(N)=O)NC(=O)[C@@H](NC(=O)CNC(C)=O)CSSC[C@@H](C(N)=O)NC(=O)[C@H](CC(C)C)NC1=O [UPAR-334, Ac-Gly-[Cys-Cit-Gln-Tyr-Phe-Pro-ala-Ile-Leu-Cys]-NH2] (Ac-GC[Cit]QYFP[dA]ILC-NH2; disulfide 2-11)	> 100	≥ 126
CCCCC(=O)N[C@H]1CSSC[C@@H](C(N)=O)NC(=O)[C@H](CCC)NC(=O)[C@H]([C@@H](C)CC)NC(=O)[C@@H]2C[C@@H](O)CN2C(=O)[C@H](CCCC)N(C)C(=O)[C@H](Cc2ccccc2)NC(=O)[C@H](Cc2ccc(O)cc2)NC(=O)[C@H](CCC(N)=O)NC(=O)[C@H](CCCNC(=N)N)NC1=O [UPAR-337, Pent-[Cys-Arg-Gln-Tyr-Phe-Nmb-Hyp-Ile-Nva-Cys]-NH2] (Pentanoyl-CRQYF[NMeNle][Hyp]I[Nva]C-NH2; disulfide 1-10)	< 1.58	≥ 126
CC[C@H](C)[C@@H]1NC(=O)[C@H](C)NC(=O)[C@@H]2CCCN2C(=O)[C@H](Cc2ccccc2)NC(=O)[C@H](Cc2ccc(O)cc2)NC(=O)[C@H](CCSC)NC(=O)[C@H](CCCNC(=N)N)NC(=O)[C@@H](NC(=O)[C@H](CC(C)C)NC(=O)[C@H](CC(=O)O)NC(C)=O)CSSC[C@@H](C(N)=O)NC(=O)[C@H](CC(C)C)NC1=O [UPAR-341, Ac-Asp-Leu-[Cys-Arg-Met-Tyr-Phe-Pro-Ala-Ile-Leu-Cys]-NH2] (Ac-DLCRMYFPAILC-NH2; disulfide 3-12)	< 1.58	≤ 10
CCCCC(=O)N[C@H]1CSSC[C@@H](C(N)=O)NC(=O)[C@H](CCC)NC(=O)[C@H]([C@@H](C)CC)NC(=O)[C@@H]2C[C@@H](O)CN2C(=O)[C@@H]2CCCN2C(=O)[C@H](Cc2ccccc2)NC(=O)[C@H](Cc2ccc(O)cc2)NC(=O)[C@H](CCCCNC(=O)CN2CCN(CC(=O)O)CCN(CC(=O)O)CCN(CC(=O)O)CC2)NC(=O)[C@H](CO)NC1=O [UPAR-342, Pent-[Cys-Ser-Lys(DOTA)-Tyr-Phe-Pro-Hyp-Ile-Nva-Cys]-NH2] (Pentanoyl-CSK(DOTA)YFP[Hyp]I[Nva]C-NH2; disulfide 1-10)	< 1.58	≤ 10
CCCCC(=O)N[C@H]1CSSC[C@@H](C(N)=O)NC(=O)[C@H](CCC)NC(=O)[C@H]([C@@H](C)CC)NC(=O)[C@H](CC(=O)O)NC(=O)[C@@H]2CCCN2C(=O)[C@H](Cc2ccccc2)NC(=O)[C@H](Cc2ccc(O)cc2)NC(=O)[C@H](CCC(N)=O)NC(=O)[C@H](CCCNC(=N)N)NC1=O [UPAR-344, Pent-[Cys-Arg-Gln-Tyr-Phe-Pro-Asp-Ile-Nva-Cys]-NH2] (Pentanoyl-CRQYFPDI[Nva]C-NH2; disulfide 1-10)	< 1.58	≤ 10

More lines, now with the values ahead:

Kd (human uPAR (uPAR-Fc)) [nM]	IC50 [1] [nM]	SMILES
> 100	≥ 126	CCCCC(=O)N[C@H]1CSSC[C@@H](C(N)=O)NC(=O)[C@H](CCC)NC(=O)[C@H]([C@@H](C)CC)NC(=O)[C@H](CCC(=O)O)N(C)C(=O)[C@@H]2CCCN2C(=O)[C@H](Cc2ccccc2)NC(=O)[C@H](Cc2ccc(O)cc2)NC(=O)[C@H](CCCCNC(=O)CN2CCN(CC(=O)O)CCN(CC(=O)O)CCN(CC(=O)O)CC2)NC(=O)[C@H](CCCNC(N)=O)NC1=O [UPAR-327, Pent-[Cys-Cit-Lys(DOTA)-Tyr-Phe-Pro-Nme-Ile-Nva-Cys]-NH2] (Pentanoyl-C[Cit]K(DOTA)YFP[NMeE]I[Nva]C-NH2; disulfide 1-10)
> 100	39.8 to 100	CC[C@H](C)[C@@H]1NC(=O)[C@@H](C)NC(=O)[C@@H]2CCCN2C(=O)[C@H](Cc2ccccc2)NC(=O)[C@H](Cc2ccc(O)cc2)NC(=O)[C@H](CCC(N)=O)NC(=O)[C@H](CCCNC(N)=O)NC(=O)[C@@H](NC(=O)CCN(C)C)CSSC[C@@H](C(N)=O)NC(=O)[C@H](CC(C)C)NC1=O [UPAR-333, Dmba-[Cys-Cit-Gln-Tyr-Phe-Pro-ala-Ile-Leu-Cys]-NH2] ({Propanoyl(3-NMe2)}-C[Cit]QYFP[dA]ILC-NH2; disulfide 1-10)
< 1.58	≤ 10	CCCCC(=O)N[C@H]1CSSC[C@@H](C(N)=O)NC(=O)[C@H](CCC)NC(=O)[C@H]([C@@H](C)CC)NC(=O)[C@@H]2C[C@@H](O)CN2C(=O)[C@@H]2CCCN2C(=O)[C@H](Cc2ccccc2)NC(=O)[C@H](Cc2ccncc2)NC(=O)[C@H](CCCCNC(=O)CN2CCN(CC(=O)O)CCN(CC(=O)O)CCN(CC(=O)O)CC2)NC(=O)[C@H](CCCNC(N)=O)NC1=O [UPAR-336, Pent-[Cys-Cit-Lys(DOTA)-Ppa-Phe-Pro-Hyp-Ile-Nva-Cys]-NH2] (Pentanoyl-C[Cit]K(DOTA)[4Pal]FP[Hyp]I[Nva]C-NH2; disulfide 1-10)
1.58 to 10	≤ 10	CC[C@H](C)[C@@H]1NC(=O)[C@@H](C)NC(=O)[C@@H]2CCCN2C(=O)[C@H](Cc2ccccc2)NC(=O)[C@H](Cc2ccc(O)cc2)NC(=O)[C@H](C)NC(=O)[C@H](CCCNC(N)=O)NC(=O)[C@@H](NC(=O)CCC(C)C)CSSC[C@@H](C(N)=O)NC(=O)[C@H](CC(C)C)NC1=O [UPAR-339, iHex-[Cys-Cit-Ala-Tyr-Phe-Pro-ala-Ile-Leu-Cys]-NH2] ({Pentanoyl(4-Me)}-C[Cit]AYFP[dA]ILC-NH2; disulfide 1-10)
10 to 100	≥ 126	CC[C@H](C)[C@H]1C(=O)N[C@@H](CC(C)C)C(=O)N[C@H](C(N)=O)CSSC[C@H](NC(=O)CCC(C)C)C(=O)N[C@@H](CCCNC(N)=O)C(=O)N[C@@H](CCC(N)=O)C(=O)N[C@@H](Cc2ccc(O)cc2)C(=O)N[C@@H](Cc2ccccc2)C(=O)N2CCC[C@H]2C(=O)N[C@H](C)C(=O)N1C [UPAR-340, iHex-[Cys-Cit-Gln-Tyr-Phe-Pro-ala-Nmi-Leu-Cys]-NH2] ({Pentanoyl(4-Me)}-C[Cit]QYFP[dA][NMeI]LC-NH2; disulfide 1-10)
10 to 100	12.6 to 31.6	CC[C@H](C)[C@@H]1NC(=O)[C@@H](C)NC(=O)[C@@H]2CCCN2C(=O)[C@H](Cc2ccc(O)cc2)NC(=O)[C@H](Cc2ccc(O)cc2)NC(=O)[C@H](CCC(N)=O)NC(=O)[C@H](CCCNC(N)=O)NC(=O)[C@@H](NC(=O)CCC(C)C)CSSC[C@@H](C(N)=O)NC(=O)[C@H](CC(C)C)NC1=O [UPAR-343, iHex-[Cys-Cit-Gln-Tyr-Tyr-Pro-ala-Ile-Leu-Cys]-NH2] ({Pentanoyl(4-Me)}-C[Cit]QYYP[dA]ILC-NH2; disulfide 1-10)
